# Measurements as given in ChEMBL document CHEMBL4732068, “The discovery of novel antitrypanosomal 4-phenyl-6-(pyridin-3-yl)pyrimidines” (Eur J Med Chem, 2021).
# Activity calls are given as the source filed them. The rule behind the calls is not given here.
# How the values were obtained:
# Cytochrome P450 1A2 = biological target: T1, Cytochrome P450 1A2 (Homo sapiens, UniProt P05177); assay: Inhibition of CYP1A2 in human liver microsomes by luminescence based P450-[…] assay; format: ADME
# T1 sequence (P05177 whole entry): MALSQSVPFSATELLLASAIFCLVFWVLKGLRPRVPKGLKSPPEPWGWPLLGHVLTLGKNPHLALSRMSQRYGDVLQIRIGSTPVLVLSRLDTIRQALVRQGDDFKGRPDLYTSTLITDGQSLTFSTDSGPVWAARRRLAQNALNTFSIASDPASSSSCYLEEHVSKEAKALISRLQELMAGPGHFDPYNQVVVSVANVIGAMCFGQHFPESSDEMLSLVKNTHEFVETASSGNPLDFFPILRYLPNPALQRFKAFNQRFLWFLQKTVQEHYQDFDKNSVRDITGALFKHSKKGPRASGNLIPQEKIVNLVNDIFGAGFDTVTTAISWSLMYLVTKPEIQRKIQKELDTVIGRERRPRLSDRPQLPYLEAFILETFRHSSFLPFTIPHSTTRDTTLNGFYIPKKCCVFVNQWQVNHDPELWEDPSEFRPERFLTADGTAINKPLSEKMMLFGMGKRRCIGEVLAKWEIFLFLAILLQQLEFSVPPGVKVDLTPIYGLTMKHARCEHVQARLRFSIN
# [1] = biological target: Histone deacetylase 3 (Homo sapiens) (UniProt O15379); assay: Inhibition of recombinant human HDAC3 by fluorescence based microplate reader analysis
# Sequence of Histone deacetylase 3 (Homo sapiens) (O15379 whole entry): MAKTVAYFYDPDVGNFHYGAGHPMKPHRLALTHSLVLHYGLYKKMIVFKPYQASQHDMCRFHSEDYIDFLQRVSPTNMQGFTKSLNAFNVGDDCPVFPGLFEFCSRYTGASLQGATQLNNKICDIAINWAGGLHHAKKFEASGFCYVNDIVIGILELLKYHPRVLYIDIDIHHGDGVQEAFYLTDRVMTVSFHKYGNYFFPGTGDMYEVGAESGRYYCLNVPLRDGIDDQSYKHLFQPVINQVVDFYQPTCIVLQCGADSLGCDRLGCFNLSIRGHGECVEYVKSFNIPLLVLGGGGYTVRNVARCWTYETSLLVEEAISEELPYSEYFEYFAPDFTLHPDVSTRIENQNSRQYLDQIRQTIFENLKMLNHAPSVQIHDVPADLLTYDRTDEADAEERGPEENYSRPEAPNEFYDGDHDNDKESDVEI
# Cytochrome P450 2C9 = Cytochrome P450 2C9 (Homo sapiens, UniProt P11712); assay: Inhibition of CYP2C9 in human liver microsomes by luminescence based P450-[…] assay
# Sequence of Cytochrome P450 2C9 (P11712 whole entry): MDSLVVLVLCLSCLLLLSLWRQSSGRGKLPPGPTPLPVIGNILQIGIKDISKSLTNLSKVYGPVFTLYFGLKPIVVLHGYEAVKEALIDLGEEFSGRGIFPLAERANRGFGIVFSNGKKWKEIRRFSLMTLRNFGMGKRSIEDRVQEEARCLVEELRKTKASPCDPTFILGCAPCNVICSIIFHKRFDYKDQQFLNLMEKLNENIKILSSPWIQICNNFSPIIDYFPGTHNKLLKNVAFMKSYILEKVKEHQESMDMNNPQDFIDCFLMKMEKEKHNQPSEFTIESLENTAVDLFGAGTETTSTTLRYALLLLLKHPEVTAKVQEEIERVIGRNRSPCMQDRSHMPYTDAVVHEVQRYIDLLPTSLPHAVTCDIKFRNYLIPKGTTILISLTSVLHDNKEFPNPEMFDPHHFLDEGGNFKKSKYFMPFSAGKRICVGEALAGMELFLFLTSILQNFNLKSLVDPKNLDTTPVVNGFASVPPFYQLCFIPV
# [2] = biological target: Histone deacetylase 1 (Homo sapiens) (UniProt Q13547); assay: Inhibition of recombinant human HDAC1 by fluorescence based microplate reader analysis
# Sequence of Histone deacetylase 1 (Homo sapiens) (Q13547 whole entry): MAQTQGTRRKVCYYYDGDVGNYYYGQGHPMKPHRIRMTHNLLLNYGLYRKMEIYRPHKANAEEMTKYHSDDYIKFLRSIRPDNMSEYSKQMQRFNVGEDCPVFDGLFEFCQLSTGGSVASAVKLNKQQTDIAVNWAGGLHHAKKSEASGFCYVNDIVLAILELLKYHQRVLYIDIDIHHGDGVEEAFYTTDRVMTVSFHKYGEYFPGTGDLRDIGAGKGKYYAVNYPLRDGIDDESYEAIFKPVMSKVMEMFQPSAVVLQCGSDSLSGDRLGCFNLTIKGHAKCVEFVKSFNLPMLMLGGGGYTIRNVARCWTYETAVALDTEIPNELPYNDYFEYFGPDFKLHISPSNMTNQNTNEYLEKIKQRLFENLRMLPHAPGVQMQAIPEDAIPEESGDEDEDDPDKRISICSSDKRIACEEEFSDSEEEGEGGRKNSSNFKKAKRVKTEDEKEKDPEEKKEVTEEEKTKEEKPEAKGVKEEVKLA
# Cytochrome P450 2C19 = Cytochrome P450 2C19 (Homo sapiens, UniProt P33261); assay: Inhibition of CYP2C19 in human liver microsomes by luminescence based P450-[…] assay; format: ADME
# Sequence of Cytochrome P450 2C19 (P33261 whole entry): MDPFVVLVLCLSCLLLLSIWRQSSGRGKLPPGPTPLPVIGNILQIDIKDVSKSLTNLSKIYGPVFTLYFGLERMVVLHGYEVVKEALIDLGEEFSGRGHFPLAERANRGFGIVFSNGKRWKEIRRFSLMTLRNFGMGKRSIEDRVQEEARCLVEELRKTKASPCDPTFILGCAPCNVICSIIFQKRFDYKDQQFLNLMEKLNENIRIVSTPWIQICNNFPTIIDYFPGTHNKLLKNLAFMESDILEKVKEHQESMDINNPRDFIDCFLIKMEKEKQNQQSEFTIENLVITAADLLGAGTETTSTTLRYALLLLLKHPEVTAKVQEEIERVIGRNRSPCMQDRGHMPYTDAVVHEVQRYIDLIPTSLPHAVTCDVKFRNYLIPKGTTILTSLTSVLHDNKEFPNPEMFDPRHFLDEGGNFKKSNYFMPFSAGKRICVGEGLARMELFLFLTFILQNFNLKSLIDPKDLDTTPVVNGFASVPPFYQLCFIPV
# [3] = biological target: T2, Protein deacetylase HDAC6 (Homo sapiens) (UniProt Q9UBN7); assay: Inhibition of recombinant human HDAC6 by fluorescence based microplate reader analysis
# T2 sequence (whole entry): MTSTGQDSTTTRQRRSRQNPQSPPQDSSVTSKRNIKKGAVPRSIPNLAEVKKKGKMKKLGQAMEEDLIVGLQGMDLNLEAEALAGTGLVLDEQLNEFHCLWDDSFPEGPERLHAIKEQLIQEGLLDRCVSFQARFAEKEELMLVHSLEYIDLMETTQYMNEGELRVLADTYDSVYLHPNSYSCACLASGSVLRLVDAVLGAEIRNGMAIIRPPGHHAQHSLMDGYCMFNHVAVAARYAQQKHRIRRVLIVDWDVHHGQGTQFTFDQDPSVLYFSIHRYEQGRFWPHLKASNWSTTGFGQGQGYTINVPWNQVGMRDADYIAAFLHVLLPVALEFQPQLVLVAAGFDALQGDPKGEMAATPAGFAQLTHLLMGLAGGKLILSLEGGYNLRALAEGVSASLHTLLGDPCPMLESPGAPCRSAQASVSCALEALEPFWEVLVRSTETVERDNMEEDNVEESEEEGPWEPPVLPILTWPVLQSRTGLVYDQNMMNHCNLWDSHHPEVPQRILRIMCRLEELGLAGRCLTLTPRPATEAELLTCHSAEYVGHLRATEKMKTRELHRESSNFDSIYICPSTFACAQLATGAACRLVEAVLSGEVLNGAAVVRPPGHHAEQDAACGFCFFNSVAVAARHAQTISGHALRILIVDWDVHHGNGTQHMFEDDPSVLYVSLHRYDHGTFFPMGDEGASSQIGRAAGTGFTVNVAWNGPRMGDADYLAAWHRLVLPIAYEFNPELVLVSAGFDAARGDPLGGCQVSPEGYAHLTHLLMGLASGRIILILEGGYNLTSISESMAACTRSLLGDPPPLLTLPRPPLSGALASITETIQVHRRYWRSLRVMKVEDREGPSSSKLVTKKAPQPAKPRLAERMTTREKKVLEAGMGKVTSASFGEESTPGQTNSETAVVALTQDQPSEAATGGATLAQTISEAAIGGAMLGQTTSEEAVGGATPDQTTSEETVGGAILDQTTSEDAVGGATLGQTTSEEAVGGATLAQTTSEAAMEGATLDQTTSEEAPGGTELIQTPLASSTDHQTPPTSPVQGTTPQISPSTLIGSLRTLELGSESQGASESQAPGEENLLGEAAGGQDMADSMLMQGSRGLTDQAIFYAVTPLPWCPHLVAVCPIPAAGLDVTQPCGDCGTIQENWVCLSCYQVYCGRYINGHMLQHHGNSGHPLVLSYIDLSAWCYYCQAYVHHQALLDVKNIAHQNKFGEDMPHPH
structure (smiles),measurement,setting,value
COc1ccccc1-c1cc(-c2cccnc2)nc(N)n1,inhibition (INH),Cytochrome P450 1A2,Active
same,inhibition,[1],inactive
same,inhibition (INH),Cytochrome P450 2C9,Active
same,inhibition,[2],inactive
same,inhibition (INH),Cytochrome P450 2C19,Active
same,inhibition,[3],inactive
